Four molecules from PubChem BioAssay AID1963986 (Molecular Pharmacology Branch, DTP, NCI, 2024) can be followed below.

This assay concerns 171881-019-R-J1-PDC tumor spheroid viability. The experiment in a line: Anticancer human tumor 171881-019-R-J1-PDC patient-derived invasive breast carcinoma cell line growth inhibition [PI3K]. Particulars: spheroids with HUVEC and MSC; for viability, T/C: stronger effect = lower value. The essentials:
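High-throughput combination screen: PI3K inhibitors crossed with targeted small molecules on complex spheroids of tumor cells, HUVEC and MSCs at 37 degrees C, 5% CO2. Top concentration was at or near clinical Cmax (otherwise 10 microM), with half-log decrements.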

Setting [1] is: curve of first compound, second compound 0.0316 µM.
Where [2] appears, read: curve of first compound, second compound 0.1 µM.
[3] abbreviates: curve of first compound, second compound 0.316 µM.
The mark [4] stands for this setting: curve of first compound, second compound 1 µM.
Setting [5] is: second compound 0.0316 µM, first compound 0.0316 µM.
The mark [6] stands for this setting: second compound 0.0316 µM, first compound 0.1 µM.
Setting [7] is: second compound 0.1 µM, first compound 0.0316 µM.
Where [8] appears, read: second compound 0.1 µM, first compound 0.1 µM.
Where [9] appears, read: second compound 0.316 µM, first compound 0.0316 µM.
The mark [10] stands for this setting: second compound 0.316 µM, first compound 0.1 µM.
Where [11] appears, read: second compound 1 µM, first compound 0.0316 µM.
The mark [12] stands for this setting: second compound 1 µM, first compound 0.1 µM.

Values joined by “and” are separate entries in the source; they are usually repeats but may differ in a detail not shown here. Equal values may be shown once. A value given as a limit tells only on which side of the number the result lay.
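Also: spheroids exposed to compound for 7 days before viability read.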
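For viability, T/C in this document: 100% = DMSO vehicle-treated spheroids.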

Turning to `C[C@@H](NC(=O)c1ncnc(N)c1Cl)c1ncc(C(=O)Nc2cc(C(F)(F)F)c(Cl)cn2)s1` + CC(Nc1ncnc2nc[nH]c12)c1cc2cccc(Cl)c2c(=O)n1-c1ccccc1, the IC50 is more than 10000 nM under setting [1]; 9460 nM under setting [2]; 8250 nM under setting [3]; 7020 nM under setting [4]; 3020 nM (curve of first compound, second compound 3.16 µM); 666 nM (curve of first compound, second compound 10 µM). The viability, T/C is, setting by setting: under setting [5], 76.3%; under setting [6], 81.8%; (second compound 0.0316 µM, first compound 0.316 µM) 86.3%; (second compound 0.0316 µM, first compound 1 µM) 104%; (second compound 0.0316 µM, first compound 3.16 µM) 79%; (second compound 0.0316 µM, first compound 10 µM) 51.3%. The viability, T/C is 92.4% under setting [7]; 96.4% under setting [8]; 88.2% (second compound 0.1 µM, first compound 0.316 µM); 93.4% (second compound 0.1 µM, first compound 1 µM); 76.5% (second compound 0.1 µM, first compound 3.16 µM); 48.5% (second compound 0.1 µM, first compound 10 µM). Moreover, the viability, T/C is 92.7% under setting [9]; 78% under setting [10]; 93.2% (second compound 0.316 µM, first compound 0.316 µM); 83.2% (second compound 0.316 µM, first compound 1 µM); 79.4% (second compound 0.316 µM, first compound 3.16 µM); 44.1% (second compound 0.316 µM, first compound 10 µM). For the same molecule, the viability, T/C by setting is: under setting [11], 99.6%; under setting [12], 92.8%; (second compound 1 µM, first compound 0.316 µM) 96.4%; (second compound 1 µM, first compound 1 µM) 93.8%; (second compound 1 µM, first compound 3.16 µM) 69.4%; (second compound 1 µM, first compound 10 µM) 41.4%. The viability, T/C is 90.1% (second compound 3.16 µM, first compound 0.0316 µM); 74.8% (second compound 3.16 µM, first compound 0.1 µM); 78% (second compound 3.16 µM, first compound 0.316 µM); 77.9% (second compound 3.16 µM, first compound 1 µM); 48.8% (second compound 3.16 µM, first compound 3.16 µM); 30% (second compound 3.16 µM, first compound 10 µM). Besides, the viability, T/C by setting is: (second compound 10 µM, first compound 0.0316 µM) 63.8%; (second compound 10 µM, first compound 0.1 µM) 60.8%; (second compound 10 µM, first compound 0.316 µM) 54.6%; (second compound 10 µM, first compound 1 µM) 48.5%; (second compound 10 µM, first compound 3.16 µM) 33.4%; (second compound 10 µM, first compound 10 µM) 21.2%.

Turning to `CCCS(=O)(=O)Nc1ccc(F)c(C(=O)c2c[nH]c3ncc(-c4ccc(Cl)cc4)cc23)c1F`, the viability, T/C (compound 0.0316 µM) is 91.5% [middle of 4 runs]; the viability, T/C (compound 0.1 µM) was 91.1% [middle of 4 runs]; the viability, T/C (compound 0.316 µM) is 101% (2×) and 103% and 90.9%; the viability, T/C (compound 1 µM) is 99.5% [middle of 4 runs]; the viability, T/C (compound 3.16 µM) was 89.8% [middle of 4 runs]; the viability, T/C (compound 10 µM) is 16.1% [middle of 4 runs]. For the same molecule, the IC50 (curve of compound) is 5.64 µM [middle of 4 runs].

Consider `CC1(C)CCC(CN2CCN(c3ccc(C(=O)NS(=O)(=O)c4ccc(NCC5CCOCC5)c([N+](=O)[O-])c4)c(Oc4cnc5[nH]ccc5c4)c3)CC2)=C(c2ccc(Cl)cc2)C1`, for which the viability, T/C is, setting by setting: (compound 0.0316 µM) 90.2% [middle of 4 runs]; (compound 0.1 µM) 87.8% [middle of 4 runs]; (compound 1 µM) 86.9% [middle of 4 runs]; (compound 3.16 µM) 63.4% [middle of 4 runs].

Consider `CC(C)n1nc(-c2ccc3oc(N)nc3c2)c2c(N)ncnc21` + COc1c(OCCCN2CCOCC2)ccc2c3n(c(=NC(=O)c4cnc(N)nc4)nc12)CCN3, for which the IC50 was 3.55 nM (curve of first compound, second compound 0.00316 µM); less than 0.316 nM (curve of first compound, second compound 0.01 µM); less than 0.316 nM under setting [1]; less than 0.316 nM under setting [2]; less than 0.316 nM under setting [3]; less than 0.316 nM under setting [4]. Moreover, the viability, T/C by setting is: (second compound 0.00316 µM, first compound 0.000316 µM) 61.1%; (second compound 0.00316 µM, first compound 0.001 µM) 66.3%; (second compound 0.00316 µM, first compound 0.00316 µM) 47.6%; (second compound 0.00316 µM, first compound 0.01 µM) 36.1%; (second compound 0.00316 µM, first compound 0.0316 µM) 13.1%; (second compound 0.00316 µM, first compound 0.1 µM) 3.55%. The viability, T/C (second compound 0.01 µM, first compound 0.000316 µM) is 46%; the viability, T/C (second compound 0.01 µM, first compound 0.001 µM) is 45.8%; the viability, T/C (second compound 0.01 µM, first compound 0.00316 µM) is 36.4%; the viability, T/C (second compound 0.01 µM, first compound 0.01 µM) was 19.3%; the viability, T/C (second compound 0.01 µM, first compound 0.0316 µM) was 8.72%; the viability, T/C (second compound 0.01 µM, first compound 0.1 µM) is 2.78%. The viability, T/C was 23.6% (second compound 0.0316 µM, first compound 0.000316 µM); 22.3% (second compound 0.0316 µM, first compound 0.001 µM); 16% (second compound 0.0316 µM, first compound 0.00316 µM); 8.85% (second compound 0.0316 µM, first compound 0.01 µM); 4.14% under setting [5]; 2.34% under setting [6]. The viability, T/C by setting is: (second compound 0.1 µM, first compound 0.000316 µM) 8.49%; (second compound 0.1 µM, first compound 0.001 µM) 7.85%; (second compound 0.1 µM, first compound 0.00316 µM) 5.37%; (second compound 0.1 µM, first compound 0.01 µM) 3.59%; under setting [7], 2.66%; under setting [8], 1.6%. Also, the viability, T/C is 2.47% (second compound 0.316 µM, first compound 0.000316 µM); 2.41% (second compound 0.316 µM, first compound 0.001 µM); 2.58% (second compound 0.316 µM, first compound 0.00316 µM); 1.51% (second compound 0.316 µM, first compound 0.01 µM); 1.36% under setting [9]; 1.1% under setting [10]. Besides, the viability, T/C runs as follows: (second compound 1 µM, first compound 0.000316 µM) 1.08%; (second compound 1 µM, first compound 0.001 µM) 0.86%; (second compound 1 µM, first compound 0.00316 µM) 1.3%; (second compound 1 µM, first compound 0.01 µM) 1.16%; under setting [11], 1.03%; under setting [12], 1.05%.

In general, IC50 refers to the midpoint of a concentration-inhibition curve. As usually defined, the viability, T/C is the result in the treated group divided by that in the control group, in per cent.
